Measurements taken from ChEMBL document CHEMBL1201862, “PubChem BioAssay data set” (2004).
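Method: 48-hour compound exposure of cells in 96-well plates, five concentrations, linear interpolation of endpoints. Here, GI50 denotes the concentration required for 50% inhibition of growth.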 Calls of active or inactive are those of the source. Cut-off read from the data, not from the text of the source: active = GI50 up to about 1.1 µM and inactive = higher.

Columns and labels:
Experiment in all cases: DTP human tumour cell line panel, 48 h
HT-29 = system: HT-29
OVCAR-3 = system: OVCAR-3
MOLT-4 = system: MOLT-4
A549 = system: A549
OVCAR-4 = system: OVCAR-4
786-0 = system: 786-0
KM12 = system: KM12
SF-295 = system: SF-295
SR = system: SR
OVCAR-5 = system: OVCAR-5
CAKI-1 = system: CAKI-1
U-251 = system: U-251
Malme-3M = system: Malme-3M
SNB-19 = system: SNB-19
SF-268 = system: SF-268
SNB-75 = system: SNB-75
SK-OV-3 = system: SK-OV-3
DU-145 = system: DU-145
MDA-MB-435 = system: MDA-MB-435

Measured: GI50

CCOC(=N)CC(=O)Nc1cccc(Cl)c1
inactive: HT-29 > 100 µM | OVCAR-3 > 100 µM | MOLT-4 > 100 µM | A549 > 100 µM | OVCAR-4 > 100 µM | 786-0 > 100 µM | KM12 > 100 µM | SF-295 > 100 µM | SR > 100 µM | OVCAR-5 > 100 µM | CAKI-1 > 100 µM | U-251 > 100 µM | Malme-3M 31.7 µM | SNB-19 > 100 µM | SF-268 > 100 µM | SNB-75 > 100 µM | SK-OV-3 > 100 µM

COc1cccc2nc3c(C(=O)NCCN(C)C)cccc3nc12
active: SF-268 0.713 µM
inactive: HT-29 4.63 µM | OVCAR-3 18.1 µM | MOLT-4 3.61 µM | A549 7.35 µM | OVCAR-4 8.77 µM | 786-0 10.6 µM | KM12 7.19 µM | SF-295 10.1 µM | SR 3.38 µM | OVCAR-5 15.9 µM | CAKI-1 17.1 µM | U-251 12.6 µM | Malme-3M 7.96 µM | SNB-19 17.4 µM | SNB-75 12.4 µM | SK-OV-3 25.1 µM

O=c1n(CCO)nc2n1CCCN2
inactive: HT-29 > 100 µM | OVCAR-3 > 100 µM | MOLT-4 > 100 µM | A549 > 100 µM | OVCAR-4 > 100 µM | 786-0 > 100 µM | KM12 > 100 µM | SF-295 > 100 µM | SR > 100 µM | OVCAR-5 > 100 µM | DU-145 > 100 µM | U-251 > 100 µM | Malme-3M > 100 µM | SNB-19 > 100 µM | SF-268 > 100 µM | SNB-75 > 100 µM | SK-OV-3 > 100 µM | MDA-MB-435 > 100 µM

[N-]=[N+]=C1C(=O)C2CC3CC1CC2C3 (stereo unspecified)
inactive: HT-29 > 100 µM | OVCAR-3 > 100 µM | MOLT-4 > 100 µM | A549 > 100 µM | OVCAR-4 > 100 µM | 786-0 > 100 µM | KM12 > 100 µM | SF-295 > 100 µM | SR > 100 µM | OVCAR-5 > 100 µM | CAKI-1 > 100 µM | U-251 > 100 µM | Malme-3M > 100 µM | SNB-19 > 100 µM | SF-268 > 100 µM | SNB-75 > 100 µM | SK-OV-3 > 100 µM

CC1=C(C(=O)Nc2ccccc2C)C(c2ccccc2)C(C(=O)Nc2ccccc2C)=C(C)N1
inactive: HT-29 34.7 µM | OVCAR-3 31.8 µM | MOLT-4 9.95 µM | A549 59 µM | OVCAR-4 28.5 µM | 786-0 68.9 µM | KM12 26.6 µM | SF-295 36.5 µM | SR 11.7 µM | OVCAR-5 > 100 µM | CAKI-1 24.9 µM | U-251 37.2 µM | Malme-3M 35.1 µM | SNB-19 45.8 µM | SF-268 > 100 µM | SNB-75 35.6 µM | SK-OV-3 > 100 µM

COC(=O)[C@]12CCC(C)[C@H](C)[C@H]1C1=CCC3[C@@]4(C)CC[C@H](OC(C)=O)C(C)(C)C4CC[C@@]3(C)C1(C)C(O)C2 (stereo partly specified)
inactive: HT-29 > 100 µM | OVCAR-3 > 100 µM | MOLT-4 86.5 µM | A549 > 100 µM | OVCAR-4 > 100 µM | 786-0 > 100 µM | KM12 > 100 µM | SF-295 > 100 µM | SR > 100 µM | OVCAR-5 > 100 µM | CAKI-1 > 100 µM | U-251 > 100 µM | Malme-3M > 100 µM | SNB-19 > 100 µM | SF-268 > 100 µM | SNB-75 45.2 µM | SK-OV-3 > 100 µM

COc1cc2c(cn1)[nH]c1ccccc12
inactive: HT-29 > 100 µM | OVCAR-3 > 100 µM | MOLT-4 > 100 µM | A549 > 100 µM | OVCAR-4 > 100 µM | 786-0 > 100 µM | KM12 > 100 µM | SF-295 > 100 µM | SR > 100 µM | OVCAR-5 > 100 µM | CAKI-1 94.2 µM | U-251 > 100 µM | Malme-3M > 100 µM | SNB-19 > 100 µM | SF-268 88.1 µM | SNB-75 55.8 µM | SK-OV-3 > 100 µM

COc1ccc(/C=C(/C(=O)O)c2cc(OC)c(OC)c(OC)c2)cc1
inactive: HT-29 42.1 µM | OVCAR-3 23.7 µM | MOLT-4 45.4 µM | A549 56.1 µM | OVCAR-4 41.4 µM | 786-0 41.3 µM | KM12 63 µM | SR 43.3 µM | OVCAR-5 > 100 µM | CAKI-1 44.9 µM | U-251 35.2 µM | Malme-3M 30.1 µM | SNB-19 59.4 µM | SF-268 70.1 µM | SNB-75 21.6 µM | SK-OV-3 > 100 µM
